Activity calls are given as the source filed them. No rule for the calls is given here.
Target: MEK5 PB1 domain binding to MEKK2 (MAP3K2) mutant PB1, human
Assay: inhibitors of MEK5 binding to mutant MEKK2, dose response, biochemical, bead multiplex flow cytometry (AID 1895)
Conditions: Bead-based multiplex flow cytometry; for Ki: measured here: Ki for PB1 binding

| SMILES | EC50 | Ki [µM] |
| --- | --- | --- |
| CCC(/C=C1\Sc2ccc(OC)cc2N1CCO)=C\c1sc2ccc(OC)cc2[n+]1CCO | 0.51 µM | 0.5 |
| CCN1/C(=C\c2ccc3cc(C)ccc3[n+]2CC)Sc2cc(C)c(C)cc21 | > 30 µM (inactive) |  |
| CCCCN(CC)CCNC(=O)c1cc2c(-c3ccc(Cl)cc3)nn(C)c2s1 | 22.8 µM |  |
| COc1ccc(CSc2n[nH]c(C)n2)cc1[N+](=O)[O-] | > 30 µM (inactive) |  |
| NC(N)=N/N=C/c1ccc(OCc2ccc(Cl)cc2Cl)cc1 | 2.66 µM |  |
| COc1ccccc1N1CCN(S(=O)(=O)c2ccc(Cl)s2)CC1 | > 30 µM (inactive) |  |
| COc1ccc(-c2csc(N(CCCN(C)C)C(=O)c3ccccc3Cl)n2)cc1 | > 30 µM (inactive) |  |
| CCN(CC)CCOC(=O)c1ccc(N/C=C(/C#N)c2nc(-c3ccc(OC)c(OC)c3)cs2)cc1 | > 30 µM (inactive) |  |
| CCOC(=O)c1c(CSC(=N)N)n(-c2ccc(C)cc2)c2cc(Br)c(OC(C)=O)cc12 | 10.3 µM |  |
| CCN1CCN(Cc2ccc(NC(=O)c3ccc(C)c(NC(=O)C(=O)c4c[nH]c5ccccc45)c3)cc2C(F)(F)F)CC1 | > 30 µM (inactive) |  |
| O=C1c2ccccc2-c2onc3ccc(NCCCn4ccnc4)c1c23 | > 30 µM (inactive) |  |
| Cc1cc2ccccc2n1CCNC(=O)c1ccccc1 | > 30 µM (inactive) |  |
| C=CC#CC[N+]1(CC#Cc2ccccc2)CCOCC1 | > 30 µM (inactive) |  |
| CCN(CC)CCOC(=O)c1ccc(N/C=C(/C#N)c2nc(-c3cc4ccccc4oc3=O)cs2)cc1 | 4.9 µM | 4.8 |
| Cc1ccccc1OCC(O)CNC1CCC(NCC(O)COc2ccccc2C)CC1 (configuration not stated) | > 30 µM (inactive) |  |
| COc1ccc(Cn2c(SCc3ccccc3C)nc3cc(OC)c(OC)cc3c2=N)cc1 | > 30 µM (inactive) |  |
| COc1ccc(-c2cc(C#N)nc(N3CCNCC3)n2)cc1 | > 30 µM (inactive) |  |
| C#CCOCCOCCOCCNc1nc(N2CCN(C(=O)C(Cc3ccc(O)cc3)n3cc(C(N)CC(C)C)nn3)CC2)nc(N2CCN(C(=O)C(Cc3cc4ccccc4[nH]3)n3cc(C(N)Cc4ccc(O)cc4)nn3)CC2)n1 (configuration not stated) | 12.8 µM |  |
| C#CCOCCOCCOCCNc1nc(N2CCN(C(=O)[C@H](Cc3ccc(O)cc3)n3cc([C@@H](N)CC(C)C)nn3)CC2)nc(N2CCN(C(=O)[C@H](Cc3cc4ccccc4[nH]3)n3cc([C@@H](N)CC(C)C)nn3)CC2)n1 | > 30 µM (inactive) |  |
| C#CCOCCOCCOCCNc1nc(N2CCN(C(=O)[C@H](CCCCN)n3cc([C@@H](N)CC(C)C)nn3)CC2)nc(N2CCN(C(=O)[C@H](Cc3cc4ccccc4[nH]3)n3cc([C@@H](N)Cc4ccc(O)cc4)nn3)CC2)n1 | 11.1 µM |  |
| Cc1ccc(-c2c[n+](CC(=O)Nc3nc(-c4ccc(F)cc4)cs3)c3n2CCC3)cc1 | > 30 µM (inactive) |  |
| C/C(=N\NC(=O)c1cc(O)cc(O)c1)c1ccc(NC(=O)Cc2ccccc2)cc1 | > 30 µM (inactive) |  |
| CCN1/C(=C/C=C/C=C/C=C/c2sc3ccccc3[n+]2CC)Sc2ccccc21 | > 30 µM (inactive) |  |
| COc1ccc(NC(=O)N(Cc2cc3cc(C)ccc3[nH]c2=O)CC2CCCO2)cc1 (configuration not stated) | > 30 µM (inactive) |  |
| CCCCCCCCCCOC(=O)Cn1c(COc2cccc(C)c2)[n+](C)c2ccccc21 | > 30 µM (inactive) |  |
| CCCCCCCCCC[N+](C)(C)CC/C=C1/c2ccccc2Sc2ccc(Cl)cc21 | > 30 µM (inactive) |  |

| SMILES | EC50 | Ki [µM] |
| --- | --- | --- |
| COc1ccc(CNC[C@@H](CCCCN(C)Cc2ccc(OC)cc2)N2C[C@H](c3ccccc3)N(CCc3ccc(Cl)c(Cl)c3)C(=O)C2=O)cc1 | > 30 µM (inactive) |  |
| CCN1C(c2ccccc2)=C(c2ccccc2)S/C1=C\C=C1/SC(=S)N(C)C1=O | 3.35 µM | 3.28 |
| CCCCCc1cc(=O)oc2c(C(CCN3CCCCC3)c3ccc(OC)cc3)c(OC)cc(OC)c12 (configuration not stated) | > 30 µM (inactive) |  |
| C#CCOCCOCCOCCNc1nc(N2CCN(C(=O)[C@H](Cc3cc4ccccc4[nH]3)n3cc([C@@H](N)C(C)CC)nn3)CC2)nc(N2CCN(C(=O)[C@H](Cc3cc4ccccc4[nH]3)n3cc([C@@H](N)CC(C)C)nn3)CC2)n1 (some centres not stated) | 3.62 µM |  |
| CN(C)c1ccc(/C=C/C=C2/SC(=S)N(c3ccccc3)C2=O)cc1 | inactive |  |
| C#CCOCCOCCOCCNc1nc(N2CCN(C(=O)[C@H]([C@@H](C)CC)n3cc([C@@H](N)CO)nn3)CC2)nc(N2CCN(C(=O)[C@H](Cc3cc4ccccc4[nH]3)n3cc([C@@H](N)Cc4ccc(O)cc4)nn3)CC2)n1 | inactive |  |
| CCc1ccc(Nc2n[n+](-c3ccccc3)c(-c3ccc(OCc4ccccc4)cc3)s2)cc1 | > 30 µM (inactive) |  |
| CN(C)CCNc1ncnc2c1sc1nc(-c3ccccc3)c3c(c12)CCCC3 | 4.06 µM |  |
| COc1ccc(-c2[nH]ncc2CN2CCCCCCC2)c(OC)c1 | > 30 µM (inactive) |  |
| CC(C)N=c1cc2n(-c3ccc(Cl)cc3)c3ccccc3nc-2cc1Nc1ccc(Cl)cc1 | inactive |  |
| COCCNC(=O)CN(c1cc(Cl)ccc1OC)S(=O)(=O)c1ccc(C)c([N+](=O)[O-])c1 | > 30 µM (inactive) |  |
| COCc1c(C#N)c(NCCc2ccccc2)nc(C)c1[N+](=O)[O-] | > 30 µM (inactive) |  |
| CNc1nc(-c2c[nH]c3ccccc23)cs1 | > 30 µM (inactive) |  |
| COc1ccc2[nH]c3c(C)c4ccncc4c(C)c3c2c1 | > 30 µM (inactive) |  |
| CC(=O)Nc1cccc2c1C(=O)N(c1cccc(C)c1)C2=O | > 30 µM (inactive) |  |
| COc1ccc(C2NCCc3c2[nH]c2ccccc32)cc1CN1CCc2cc(OC)c(OC)cc2C1C (configuration not stated) | 13.2 µM |  |
| CCOC(=O)N1CCN(c2c(N3CCN(c4ccccc4F)CC3)c(=O)c2=O)CC1 | > 30 µM (inactive) |  |
| CCOC(=O)C1=C(c2ccccc2)NC(N)=NC1c1ccc(OCc2ccc(Cl)cc2)c(OC)c1 (configuration not stated) | 9.64 µM |  |
| CCNc1ccc2noc3c2c1C(=O)c1ccccc1-3 | 4.43 µM | 4.34 |
| CCOC(=O)c1c(-c2ccc(-c3ccccc3)cc2)csc1NC(=O)CNCCN(C)C | 1.09 µM |  |
| CCN(CC)CCOC(=O)c1ccc(N/C=C(/C#N)c2nc(-c3ccc(OC)cc3)cs2)cc1 | > 30 µM (inactive) |  |
| CCC(=C/c1sc2ccc3ccccc3c2[n+]1C)/C=C1\Sc2ccc3ccccc3c2N1C | inactive | 0.14 |
| Nc1ccc(Nc2ccccc2N)cc1 | > 30 µM (inactive) |  |
| CCCCCCCCCCOC(=O)Cn1c(COc2ccc(C)cc2)[n+](C)c2ccccc21 | 4.57 µM |  |
| CCN(CC)CCOc1ccc2c(c1)C(=NNC(=O)c1ccccn1)c1cc(OCCN(CC)CC)ccc1-2 | 5.52 µM |  |
| C#CCOCCOCCOCCNc1nc(N2CCN(C(=O)[C@H]([C@@H](C)CC)n3cc([C@@H](N)Cc4ccc(O)cc4)nn3)CC2)nc(N2CCN(C(=O)[C@H](Cc3cc4ccccc4[nH]3)n3cc([C@@H](N)C(C)CC)nn3)CC2)n1 (some centres not stated) | 10.1 µM |  |

| SMILES | EC50 | Ki [µM] |
| --- | --- | --- |
| CCc1ccc(-c2nn(-c3ccccc3)cc2CSC(=N)N)cc1 | 5.27 µM |  |
| C#CCOCCOCCOCCNc1nc(N2CCN(C(=O)[C@H]([C@@H](C)CC)n3cc([C@@H](N)CC(C)C)nn3)CC2)nc(N2CCN(C(=O)[C@H](Cc3cc4ccccc4[nH]3)n3cc([C@@H](N)CC(C)C)nn3)CC2)n1 | 20.9 µM |  |
| C#CCOCCOCCOCCNc1nc(N2CCN(C(=O)[C@H](Cc3ccc(O)cc3)n3cc([C@@H](N)CC(C)C)nn3)CC2)nc(N2CCN(C(=O)[C@H](Cc3ccc(O)cc3)n3cc([C@@H](N)CC(C)C)nn3)CC2)n1 | 25.1 µM |  |
| Nc1cc2nc[nH]c2cc1N | inactive | 5.77 |
| C#CCOCCOCCOCCNc1nc(N2CCN(C(=O)[C@H]([C@@H](C)CC)n3cc([C@@H](N)CC(C)C)nn3)CC2)nc(N2CCN(C(=O)[C@H](Cc3cc4ccccc4[nH]3)n3cc([C@@H](N)Cc4ccc(O)cc4)nn3)CC2)n1 | > 30 µM (inactive) |  |
| CN(C)c1ccc(NC(=O)CN2CCC(O)(c3ccccc3)CC2)cc1 | > 30 µM (inactive) |  |
| CC(=O)Nc1ccc(OCC(O)Cn2c3ccccc3c3ccccc32)cc1 (configuration not stated) | > 30 µM (inactive) |  |
| C#CCOCCOCCOCCNc1nc(N2CCN(C(=O)[C@H](Cc3cc4ccccc4[nH]3)n3cc([C@@H](N)C(C)CC)nn3)CC2)nc(N2CCN(C(=O)[C@H](CCCCN)n3cc([C@@H](N)CC(C)C)nn3)CC2)n1 (some centres not stated) | 10.3 µM |  |
| FC(F)(F)c1cccc(NC(=S)N(CCCN2CCCC2)Cc2cccn2Cc2ccc(Cl)cc2)c1 | 7.06 µM |  |
| CCc1ccc(Nc2n[n+](-c3ccccc3)c(-c3ccc(OC)c(Br)c3)s2)cc1 | 4.62 µM |  |
| C#CCOCCOCCOCCNc1nc(N2CCN(C(=O)[C@H](Cc3cc4ccccc4[nH]3)n3cc([C@@H](N)CC(C)C)nn3)CC2)nc(N2CCN(C(=O)[C@H](Cc3cc4ccccc4[nH]3)n3cc([C@@H](N)CC(C)C)nn3)CC2)n1 | 1.44 µM |  |
| Cc1ccnc(NC(=O)C2(c3cccs3)CCOCC2)c1 | > 30 µM (inactive) |  |
| COc1ccc2nc(C)cc(N/N=C/c3cccc(OC)c3O)c2c1 | > 30 µM (inactive) |  |
| CCCOc1ccc2c(c1)C(=NN=C(N)N)c1cc(OCCC)ccc1-2 | 9.98 µM |  |
| C#CCOCCOCCOCCNc1nc(N2CCN(C(=O)[C@H](Cc3ccc(O)cc3)n3cc([C@@H](N)C(C)CC)nn3)CC2)nc(N2CCN(C(=O)[C@H](Cc3cc4ccccc4[nH]3)n3cc([C@@H](N)Cc4ccc(O)cc4)nn3)CC2)n1 (some centres not stated) | > 30 µM (inactive) |  |
| O=C(OCC1O[C@@H](OC(=O)c2cc(O)c(O)c(O)c2)[C@@H](OC(=O)c2cc(O)c(O)c(O)c2)[C@@H](OC(=O)c2cc(O)c(O)c(O)c2)[C@@H]1OC(=O)c1cc(O)c(O)c(O)c1)c1cc(O)c(O)c(O)c1 (some centres not stated) | > 30 µM (inactive) |  |
| CCOc1cccc2sc(N(CCCN(C)C)C(=O)c3ccc(S(=O)(=O)N4CCc5ccccc5C4)cc3)nc12 | 12.1 µM |  |
| COc1ccc(Cn2c(SCc3ccc(C)cc3)nc3cc(OC)c(OC)cc3c2=N)cc1Cl | 2.23 µM |  |
| O=C1c2ccccc2-c2onc3ccc(NCc4ccco4)c1c23 | > 30 µM (inactive) |  |
| COc1ccc(/C=N/Nc2cc(C)nc3ccc(Br)cc23)cc1 | 8.32 µM |  |
| CCCCn1c(O)c(/C=C/C=C/C=Nc2ccccc2)sc1=S | inactive |  |
| C#CCOCCOCCOCCNc1nc(N2CCN(C(=O)[C@H]([C@@H](C)CC)n3cc([C@@H](N)Cc4ccc(O)cc4)nn3)CC2)nc(N2CCN(C(=O)[C@H](CCCCN)n3cc([C@@H](N)CC(C)C)nn3)CC2)n1 | 14.7 µM |  |
| CNC(=O)C(=O)Nc1c(C)cc(C)cc1C | > 30 µM (inactive) |  |
| CCN1CCN(CCNC(=O)c2ccc(/C=C3/Sc4ccccc4N(Cc4cccc(Cl)c4)C3=O)cc2)CC1 | 6.53 µM |  |
